From patent publication EP0308983A2, “NMR imaging with Mn(II) coordination compositions” (priority 1987, dated 1989)

Columns and labels:
[1] = Paramagnetic relaxation properties in water at 10 MHz (0.15T), RADX spin analyzer; type: physicochemical; conditions: for spin-lattice (T₁) relaxation value / spin-spin (T₂) relaxation value / millimolar relaxivity for T₁ / millimolar relaxivity for T₂ / Relaxivity (mM⁻¹sec⁻¹) Spin-Lattice / Relaxivity (mM⁻¹sec⁻¹) Spin-Spin: 10 MHz (0.15T); for millimolar relaxivity for T₁ / millimolar relaxivity for T₂: in water; for millimolar relaxivity for T₁: calculated from T₁ and concentration; for millimolar relaxivity for T₂: calculated from T₂ and concentration; for Spin-Spin Relaxivity: 0.15 T (10 MHz)
Description: The paramagnetic relaxation properties of [manganese(II)·(H₂O)₂·(L-alanine)₂]⁺²(Cl₂)⁻² in water were measured at 10 MHz (0.15T) with a spin analyzer (RADX; Houston, TX) at 37°C. After thermal equilibrium, the spin-lattice (T₁) and spin-spin (T₂) relaxation values were measured in triplicate.
The paramagnetic relaxation of the title compound in water was measured at 10 MHz (0.15T) with a spin analyzer (RADX; Houston, TX). After thermal equilibrium, the spin-lattice (T₁) and spin-spin (T₂) relaxation values were measured.
Relaxivity was measured at 10 MHz (0.15T) as described in Example 10.
The relaxivity of the title compound was performed at 0.15 T (10 MHz) with a RADX Spin Analyzer (Houston, TX) at 37°C.

[2] = Paramagnetic relaxation properties in human plasma at 37°C; type: physicochemical
[3] = 0.97 mM solution in water, 37°C, triplicate, mean +/- SD
[4] = 37°C, repeat measurement 80 minutes later

In the case of `CSCC[C@H](N)C(=O)O.CSCC[C@H](N)C(=O)O.O.O.[Cl-].[Cl-].[Mn+2]` [Manganese(II)·(H₂O)₂·(L-methionine)₂]⁺²(Cl₂)⁻²], the “spin-lattice (T₁) relaxation value” [1, 3] is reported as 106 ± 2 ms, the “spin-spin (T₂) relaxation value” [1, 3] is reported as 27 ± 1 ms and the “millimolar relaxivity for T₁” value [1] is reported as 9.73 mM⁻¹ s⁻¹. For the same molecule, the “millimolar relaxivity for T₂” value [1] was 38.2 mM⁻¹ s⁻¹, the T₂ value ([2]; 92 µM final concentration, 37°C) was 202 ± 9 ms and the T₁ value ([2]; 92 µM final concentration, 37°C, triplicate) was 257 ± 18 ms. For the same molecule, the R₁ ([2]; 37°C) was 42.3 mM⁻¹ s⁻¹, the R₂ ([2]; 37°C) was 52.8 mM⁻¹ s⁻¹ and the “T₁ changed by (repeat measurement)” value [2, 4] was 1%. For the same molecule, the “T₂ changed by (repeat measurement)” value [2, 4] was 5%, the “T₂ relaxivity in plasma, fold greater than GdDTPA” value ([2]; versus GdDTPA) was 11.2 fold and the “T₁ relaxivity in plasma, fold greater than GdDTPA” value ([2]; versus gadolinium diethylenetriaminepentaacetic acid chelate (GdDTPA)) was 8.8 fold.

With `CC(=O)[O-].CC(=O)[O-].NCC(=O)O.NCC(=O)O.NCC(=O)O.O.[Mn+2]` [[Manganese(II)·(H₂O)·(Glycine)₃]Diacetate] the “Relaxivity (mM⁻¹sec⁻¹) Spin-Lattice” value ([1]; 1 mM solution in water) was 8.47 mM⁻¹ s⁻¹ and the “Relaxivity (mM⁻¹sec⁻¹) Spin-Spin” value ([1]; 1 mM solution in water) was 33.3 mM⁻¹ s⁻¹.

With `CC(=O)[O-].CC(=O)[O-].O.O.O.O.[Mn+2]` [[Manganese(II)·(H₂O)₄]Diacetate, reference compound] the “Relaxivity (mM⁻¹sec⁻¹) Spin-Lattice” value ([1]; 1 mM solution in water) was 9.09 mM⁻¹ s⁻¹, the “Relaxivity (mM⁻¹sec⁻¹) Spin-Spin” value ([1]; 1 mM solution in water) was 33.3 mM⁻¹ s⁻¹ and the “Spin-Spin Relaxivity” value ([1]; 37°C) was 33.30 mM⁻¹ s⁻¹.

For `NCC(=O)O.N[C@@H](CO)C(=O)O.N[C@@H](Cc1c[nH]cn1)C(=O)O.O=C(O)[C@@H]1CCCN1.O=S(=O)([O-])[O-].[Mn+2]` [[Manganese(II)·Glycine·L-Serine·L-Histidine·L-Proline](Sulfate)], the “spin-lattice (T₁) relaxation value” ([1]; 1 mM solution in water) was 103 ms, the “spin-spin (T₂) relaxation value” ([1]; 1 mM solution in water) was 28 ms and the “millimolar relaxivity for T₁” value [1] was 9.71 mM⁻¹ s⁻¹. The “millimolar relaxivity for T₂” value [1] was 35.7 mM⁻¹ s⁻¹.

With `CC(=O)[O-].CC(=O)[O-].NCC(=O)O.NCC(=O)O.NCC(=O)O.NCC(=O)O.[Mn+2]` [[Manganese(II)·(Glycine)₄]Diacetate] the “Relaxivity (mM⁻¹sec⁻¹) Spin-Lattice” value ([1]; 1 mM solution in water) was 8.00 mM⁻¹ s⁻¹ and the “Relaxivity (mM⁻¹sec⁻¹) Spin-Spin” value ([1]; 1 mM solution in water) was 33.3 mM⁻¹ s⁻¹.

In the case of `NCC(=O)[O-].NCC(=O)[O-].O.O.O.O.O.O.O=S(=O)([O-])[O-].[Mn+2].[Mn+2]` [[Manganese(II)·CH₂(NH₂)COO-]₂⁺¹(SO₄^=), reference compound], the “Spin-Spin Relaxivity” value ([1]; 37°C) is reported as 2.92 mM⁻¹ s⁻¹.

With `NC(CO)C(=O)O.O.O.O.O=C([O-])C(O)C(O)C(O)C(O)CO.O=C([O-])C(O)C(O)C(O)C(O)CO.[Mn+2]` [[Manganese(II)(H₂O)₃-L-Serine]Digluconate] the “spin-lattice (T₁) relaxation value” ([1]; 1 mM solution in water) was 107 ms, the “spin-spin (T₂) relaxation value” ([1]; 1 mM solution in water) was 27 ms and the “millimolar relaxivity for T₁” value [1] was 9.35 mM⁻¹ s⁻¹. For the same molecule, the “millimolar relaxivity for T₂” value [1] was 37.0 mM⁻¹ s⁻¹.

With “[Manganese(II)(H₂O)₂(L-serine)₂](Glycerophosphate)” the “spin-lattice (T₁) relaxation value” ([1]; 1 mM solution in water) was 147 ms, the “spin-spin (T₂) relaxation value” ([1]; 1 mM solution in water) was 54 ms and the “millimolar relaxivity for T₁” value [1] was 6.80 mM⁻¹ s⁻¹. The “millimolar relaxivity for T₂” value [1] was 18.5 mM⁻¹ s⁻¹.

For `CC(=O)[O-].CC(=O)[O-].NCC(=O)O.O.O.O.[Mn+2]` [[Manganese(II)·(H₂O)₃]·(Glycine)]Diacetate], the “Relaxivity (mM⁻¹sec⁻¹) Spin-Lattice” value ([1]; 1 mM solution in water) was 8.26 mM⁻¹ s⁻¹, the “Relaxivity (mM⁻¹sec⁻¹) Spin-Spin” value ([1]; 1 mM solution in water) was 33.3 mM⁻¹ s⁻¹ and the “Spin-Spin Relaxivity” value ([1]; 37°C) was 33.30 mM⁻¹ s⁻¹.

In the case of `CC(=O)[O-].C[C@H](N)C(=O)O.C[C@H](N)C(=O)O.C[C@H](N)C(=O)O.O.[I-].[Mn+2]` [[Manganese(II)H₂O(L-Alanine)₃](Acetate Iodide)], the “spin-lattice (T₁) relaxation value” ([1]; 1 mM solution in water) is reported as 104 ms, the “spin-spin (T₂) relaxation value” ([1]; 1 mM solution in water) is reported as 26 ms and the “millimolar relaxivity for T₁” value [1] is reported as 9.62 mM⁻¹ s⁻¹. The “millimolar relaxivity for T₂” value [1] was 38.5 mM⁻¹ s⁻¹.
